Data published in patent US11020409B2, “Broad antiviral therapy with membrane modifying oxysterols” (priority 2012, dated 2021).

System: VSV-GFP
Test: microbe, parasite or virus in culture
Format: cell-based, vesicular stomatitis virus

In the case of `C[C@H](CCCC(C)(C)O)[C@H]1CC[C@H]2[C@@H]3CC=C4C[C@@H](O)CC[C@]4(C)[C@H]3CC[C@]12C` [25HC, 25-hydroxycholesterol], the “VSV infection in HEK293T overexpressing active forms of SREBP1-A, SREBP1-B, and SREBP2” value is reported as “inhibited VSV infection”.
